Data: patent US10781211B2, “Spirocycle compounds and methods of making and using same” (Lundbeck La Jolla Research Center, Inc., priority 2016, dated 2020)

Assays:
FAAH = FAAH (Mus musculus (Mouse), UniProt O08914); experiment: Mouse brain proteomes from inhibitor treated mice (oral gavage, sacrifice 4 h after administration, ABPP analysis), FAAH; format: in vivo; settings: 5 mg/kg oral gavage
Experimental: (§1) Preparation of Mouse Brain Proteomes from Inhibitor Treated Mice.
(§2) Inhibitors were administered to wild-type C57Bl/6J by oral gavage in a vehicle, e.g. PEG400/Ethanol/PBS (7/2/1). Each animal was sacrificed 4 h following administration and brain proteomes were prepared and analyzed according to previously established methods (See Niphakis, M. J., et al. (2011) ACS Chem. Neurosci. and Long, J. Z., et al. Nat. Chem. Biol. 5:37-44). Data from this assay is shown in Table 2 (% inhibition at 5 mg/kg).

ABHD6 = ABHD6 (Mus musculus (Mouse), UniProt Q8R2Y0); experiment: Mouse brain proteomes from inhibitor treated mice (oral gavage, sacrifice 4 h after administration, ABPP analysis), ABHD6; format: in vivo; settings: 5 mg/kg oral gavage
Chain of ABHD6 (Q8R2Y0 whole entry): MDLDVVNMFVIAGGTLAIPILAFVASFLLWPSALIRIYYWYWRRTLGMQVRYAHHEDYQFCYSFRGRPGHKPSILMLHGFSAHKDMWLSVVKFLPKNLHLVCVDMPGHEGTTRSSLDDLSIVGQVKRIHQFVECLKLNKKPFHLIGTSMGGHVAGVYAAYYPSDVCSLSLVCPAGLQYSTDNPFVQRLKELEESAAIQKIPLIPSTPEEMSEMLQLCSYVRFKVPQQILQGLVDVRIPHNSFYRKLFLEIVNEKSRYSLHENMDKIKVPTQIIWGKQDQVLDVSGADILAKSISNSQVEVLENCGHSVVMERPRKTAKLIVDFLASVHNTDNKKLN
Experimental: as §1, §2

Chain of FAAH (O08914 whole entry): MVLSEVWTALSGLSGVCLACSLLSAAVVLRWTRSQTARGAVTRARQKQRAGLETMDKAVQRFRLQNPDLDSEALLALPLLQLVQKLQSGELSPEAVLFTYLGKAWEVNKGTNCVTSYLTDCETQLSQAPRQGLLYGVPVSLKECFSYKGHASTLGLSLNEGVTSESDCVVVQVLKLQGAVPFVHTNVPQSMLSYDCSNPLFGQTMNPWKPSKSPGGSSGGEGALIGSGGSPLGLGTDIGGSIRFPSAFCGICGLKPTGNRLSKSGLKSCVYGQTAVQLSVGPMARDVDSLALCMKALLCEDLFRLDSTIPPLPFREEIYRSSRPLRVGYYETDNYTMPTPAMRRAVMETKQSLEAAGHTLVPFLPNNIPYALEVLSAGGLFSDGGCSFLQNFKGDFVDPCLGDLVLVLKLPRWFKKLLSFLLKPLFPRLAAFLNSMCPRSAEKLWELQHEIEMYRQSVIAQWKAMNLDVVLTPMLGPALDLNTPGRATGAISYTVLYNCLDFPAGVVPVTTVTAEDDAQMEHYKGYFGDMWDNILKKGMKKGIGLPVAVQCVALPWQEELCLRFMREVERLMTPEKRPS

FAAH % Inh 5 mg/kg (mouse) (FAAH)	ABHD6 % Inh 5 mg/kg (mouse) (ABHD6)	Compound
# (# is < 25%)	# (# is < 25%)	O=C(OC(C(F)(F)F)C(F)(F)F)N1CCC2(CCN(Cc3ccc(Cl)cc3N3CCCC3)C2)CC1 [Example 17, 1,1,1,3,3,3-Hexafluoropropan-2-yl 2-(4-chloro-2-(pyrrolidin-1-yl)benzyl)-2,8-diazaspiro[4.5]decane-8-carboxylate]
# (# is < 25%)	# (# is < 25%)	O=C(OC(C(F)(F)F)C(F)(F)F)N1CCC2(CCCN2Cc2ccc(Cl)cc2N2CCN(CCF)CC2)CC1 [Example 19, 1,1,1,3,3,3-Hexafluoropropan-2-yl 1-(4-chloro-2-(4-(2-fluoroethyl)piperazin-1-yl)benzyl)-1,8-diazaspiro[4.5]decane-8-carboxylate]
# (# is < 25%)	# (# is < 25%)	O=C(OC(C(F)(F)F)C(F)(F)F)N1CCC2(CCN(Cc3ccc(C(F)(F)F)cc3N3CCCCC3)C2)CC1 [Example 23, 1,1,1,3,3,3-Hexafluoropropan-2-yl 2-(2-(piperidin-1-yl)-4-(trifluoromethyl)benzyl)-2,8-diazaspiro[4.5]decane-8-carboxylate]
# (# is < 25%)	# (# is < 25%)	O=C(OC(C(F)(F)F)C(F)(F)F)N1CCC2(CCN(Cc3ccc(Cl)cc3N3CC4COCC4C3)C2)CC1 (stereo not drawn) [Example 25, 1,1,1,3,3,3-Hexafluoropropan-2-yl 2-(4-chloro-2-(tetrahydro-1H-furo[3,4-c]pyrrol-5(3H)-yl)benzyl)-2,8-diazaspiro[4.5]decane-8-carboxylate]
# (# is < 25%)	# (# is < 25%)	O=C(OC(C(F)(F)F)C(F)(F)F)N1CCC2(CCN(Cc3ccc(C(F)(F)F)cc3N3CC4COCC4C3)C2)CC1 (stereo not drawn) [Example 26, 1,1,1,3,3,3-Hexafluoropropan-2-yl 2-(2-(tetrahydro-1H-furo[3,4-c]pyrrol-5(3H)-yl)-4-(trifluoromethyl)benzyl)-2,8-diazaspiro[4.5]decane-8-carboxylate]
# (# is < 25%)	# (# is < 25%)	CS(=O)(=O)N1CCN(c2cc(CN3CCCC34CCN(C(=O)OC(C(F)(F)F)C(F)(F)F)CC4)cc(C(F)(F)F)c2)CC1 [Example 43, 1,1,1,3,3,3-Hexafluoropropan-2-yl 1-(3-(4-(methylsulfonyl)piperazin-1-yl)-5-(trifluoromethyl)benzyl)-1,8-diazaspiro[4.5]decane-8-carboxylate]
# (# is < 25%)	# (# is < 25%)	O=C(OC(C(F)(F)F)C(F)(F)F)N1CCC2(CCCN2Cc2cc(N3CCC(F)CC3)cc(C(F)(F)F)c2)CC1 [Example 45, 1,1,1,3,3,3-Hexafluoropropan-2-yl 1-(3-(4-fluoropiperidin-1-yl)-5-(trifluoromethyl)benzyl)-1,8-diazaspiro[4.5]decane-8-carboxylate]
# (# is < 25%)		O=C(OC(C(F)(F)F)C(F)(F)F)N1CCC2(CCN(Cc3cccc(Cl)c3N3CCC(F)CC3)C2)CC1 [Example 65, 1,1,1,3,3,3-Hexafluoropropan-2-yl 2-(3-chloro-2-(4-fluoropiperidin-1-yl)benzyl)-2,8-diazaspiro[4.5]decane-8-carboxylate]
# (# is < 25%)		CS(=O)(=O)C1CN(c2cc(C(F)(F)F)ccc2CN2CCCC23CCN(C(=O)OC(C(F)(F)F)C(F)(F)F)CC3)C1 [Example 268]

Compound	FAAH % Inh 5 mg/kg (mouse) (FAAH)	ABHD6 % Inh 5 mg/kg (mouse) (ABHD6)
O=C(OC(C(F)(F)F)C(F)(F)F)N1CCC2(CCCN2Cc2ccc(C(F)(F)F)cc2N2CCN(CCF)CC2)CC1 [Example 20, 1,1,1,3,3,3-Hexafluoropropan-2-yl 1-(2-(4-(2-fluoroethyl)piperazin-1-yl)-4-(trifluoromethyl)benzyl)-1,8-diazaspiro[4.5]decane-8-carboxylate]	# (# is < 25%)	# (# is < 25%)
